Several values for one entry are separate records, joined by “and”; a condition that tells them apart may be missing. Identical values can stand only once. Inconclusive results and toxic doses are left out. The calls were made as follows: active = survival T/C of 150% or more; inactive = T/C below 125% in these data.
Tested on: CD2F1 mice, L1210 leukemia ip, survival T/C
Assay: NCI In Vivo Anticancer Drug Screen. Data for tumor model L1210 Leukemia (intraperitoneal) in CD2F1 (CDF1) mice
Settings: higher = longer survival
Procedure, shortened: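 Antitumor effect is scored in animals hosting a serially transplanted tumor. Values compare compound-dosed animals against vehicle-only controls as a simple quotient.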

[1] = endpoint: mean survival time, dose: 100.0 mg/kg/injection, schedule: Q04DX003 (ip), vehicle: saline with Tween-80
[2] = endpoint: mean survival time, dose: 200.0 mg/kg/injection, schedule: Q04DX003 (ip), vehicle: saline with Tween-80
[3] = endpoint: mean survival time, dose: 100.0 mg/kg/injection, schedule: Q04DX003 (ip), vehicle: saline
[4] = endpoint: mean survival time, dose: 100.0 mg/kg/injection, schedule: Q01DX009 (ip), vehicle: saline with Tween-80
[5] = endpoint: mean survival time, dose: 200.0 mg/kg/injection, schedule: Q01DX009 (ip), vehicle: saline with Tween-80
[6] = endpoint: mean survival time, dose: 400.0 mg/kg/injection, schedule: Q01DX009 (ip), vehicle: saline with Tween-80
[7] = endpoint: mean survival time, dose: 12.5 mg/kg/injection, schedule: Q01DX009 (ip), vehicle: saline with Tween-80
[8] = endpoint: mean survival time, dose: 25.0 mg/kg/injection, schedule: Q01DX009 (ip), vehicle: saline with Tween-80
[9] = endpoint: mean survival time, dose: 50.0 mg/kg/injection, schedule: Q01DX009 (ip), vehicle: saline with Tween-80
[10] = endpoint: mean survival time, dose: 400.0 mg/kg/injection, schedule: Q04DX003 (ip), vehicle: saline with Tween-80

Measured: T/C

CN(C)N=Nc1ccc([N+](=O)[O-])cc1C(N)=O
inactive: endpoint: mean survival time, dose: 18.8 mg/kg/injection, schedule: Q01DX009 (ip), vehicle: Klucel (hydroxypropylcellulose) (HPC) 95 % of control and 101 % of control | endpoint: mean survival time, dose: 37.5 mg/kg/injection, schedule: Q01DX009 (ip), vehicle: Klucel (hydroxypropylcellulose) (HPC) 96 % of control and 110 % of control | endpoint: mean survival time, dose: 75.0 mg/kg/injection, schedule: Q01DX009 (ip), vehicle: Klucel (hydroxypropylcellulose) (HPC) 101 % of control and 110 % of control | endpoint: mean survival time, dose: 300.0 mg/kg/injection, schedule: Q01DX009 (ip), vehicle: Klucel (hydroxypropylcellulose) (HPC) 89 % of control

O=C(c1ccc2c(c1)OCO2)c1ccc[nH]1
inactive: [1] 94 % of control | [2] 91 % of control

CC1(C)C(=O)OC(n2ccc(=O)[nH]c2=O)C1=O (configuration not stated)
inactive: endpoint: median survival time, dose: 12.5 mg/kg/injection, schedule: Q01DX005 (ip), vehicle: saline 103 % of control | endpoint: median survival time, dose: 25.0 mg/kg/injection, schedule: Q01DX005 (ip), vehicle: saline 103 % of control | endpoint: median survival time, dose: 50.0 mg/kg/injection, schedule: Q01DX005 (ip), vehicle: saline 101 % of control | endpoint: median survival time, dose: 100.0 mg/kg/injection, schedule: Q01DX005 (ip), vehicle: saline 103 % of control | endpoint: median survival time, dose: 200.0 mg/kg/injection, schedule: Q01DX005 (ip), vehicle: saline 103 % of control

Oc1ccccc1/C=N/c1nc(-c2ccccc2)cs1.[Co].[O-]c1ccccc1/C=N/c1nc(-c2ccccc2)cs1
inactive: endpoint: mean survival time, dose: 200.0 mg/kg/injection, schedule: Q01DX001 (ip), vehicle: saline with Tween-80 86 % of control | endpoint: mean survival time, dose: 400.0 mg/kg/injection, schedule: Q01DX001 (ip), vehicle: saline with Tween-80 89 % of control

CSc1nc(N)c2cnn(C3OC(CO)C(O)C3O)c2n1 (configuration not stated)
inactive: endpoint: median survival time, dose: 8.13 mg/kg/injection, schedule: Q01DX005 (ip), vehicle: saline with Tween-80 100 % of control | endpoint: median survival time, dose: 9.0 mg/kg/injection, schedule: Q01DX005 (ip), vehicle: saline 107 % of control | endpoint: median survival time, dose: 12.5 mg/kg/injection, schedule: Q01DX005 (ip), vehicle: saline with Tween-80 102 % of control | endpoint: median survival time, dose: 16.25 mg/kg/injection, schedule: Q01DX005 (ip), vehicle: saline with Tween-80 97 % of control | endpoint: median survival time, dose: 18.0 mg/kg/injection, schedule: Q01DX005 (ip), vehicle: saline 100 % of control | endpoint: median survival time, dose: 25.0 mg/kg/injection, schedule: Q01DX005 (ip), vehicle: saline with Tween-80 100 % of control | endpoint: median survival time, dose: 32.5 mg/kg/injection, schedule: Q01DX005 (ip), vehicle: saline with Tween-80 101 % of control | endpoint: median survival time, dose: 36.0 mg/kg/injection, schedule: Q01DX005 (ip), vehicle: saline 103 % of control | endpoint: median survival time, dose: 50.0 mg/kg/injection, schedule: Q01DX005 (ip), vehicle: saline with Tween-80 94 % of control | endpoint: median survival time, dose: 65.0 mg/kg/injection, schedule: Q01DX005 (ip), vehicle: saline with Tween-80 100 % of control | endpoint: median survival time, dose: 72.0 mg/kg/injection, schedule: Q01DX005 (ip), vehicle: saline 97 % of control | endpoint: median survival time, dose: 100.0 mg/kg/injection, schedule: Q01DX005 (ip), vehicle: saline with Tween-80 93 % of control | endpoint: median survival time, dose: 130.0 mg/kg/injection, schedule: Q01DX005 (ip), vehicle: saline with Tween-80 101 % of control | endpoint: median survival time, dose: 200.0 mg/kg/injection, schedule: Q01DX005 (ip), vehicle: saline with Tween-80 94 % of control

C[N+](C)(C)C12CCCC1S(=O)(=O)C2 (configuration not stated)
inactive: endpoint: mean survival time, dose: 25.0 mg/kg/injection, schedule: Q04DX003 (ip), vehicle: saline 106 % of control | endpoint: mean survival time, dose: 50.0 mg/kg/injection, schedule: Q04DX003 (ip), vehicle: saline 98 % of control | [3] 96 % of control

CC(=O)NC(C)C1(O)CCCCC1 (configuration not stated)
inactive: [3] 100 % of control | endpoint: mean survival time, dose: 200.0 mg/kg/injection, schedule: Q04DX003 (ip), vehicle: saline 97 % of control | endpoint: mean survival time, dose: 400.0 mg/kg/injection, schedule: Q04DX003 (ip), vehicle: saline 94 % of control

CC(O)C(=O)NN (configuration not stated)
inactive: [4] 112 % of control | [5] 116 % of control | [6] 93 % of control

O=C1c2ccccc2C(=O)N1CCCCCCCCCCN1C(=O)c2ccccc2C1=O
inactive: [4] 92 % of control | [5] 89 % of control | [6] 93 % of control

Brc1cnc(Br)s1
inactive: endpoint: mean survival time, dose: 13.0 mg/kg/injection, schedule: Q04DX002 (ip), vehicle: Klucel (hydroxypropylcellulose) (HPC) 92 % of control | endpoint: mean survival time, dose: 20.0 mg/kg/injection, schedule: Q04DX002 (ip), vehicle: Klucel (hydroxypropylcellulose) (HPC) 98 % of control | endpoint: mean survival time, dose: 30.0 mg/kg/injection, schedule: Q04DX002 (ip), vehicle: Klucel (hydroxypropylcellulose) (HPC) 98 % of control | endpoint: mean survival time, dose: 45.0 mg/kg/injection, schedule: Q04DX002 (ip), vehicle: Klucel (hydroxypropylcellulose) (HPC) 95 % of control

CCCCCC(CN(C)C)C(=O)/C=C/c1c(Cl)cccc1Cl (configuration not stated)
inactive: endpoint: mean survival time, dose: 6.25 mg/kg/injection, schedule: Q01DX009 (ip), vehicle: other 101 % of control | endpoint: mean survival time, dose: 12.5 mg/kg/injection, schedule: Q01DX009 (ip), vehicle: other 101 % of control | endpoint: mean survival time, dose: 25.0 mg/kg/injection, schedule: Q01DX009 (ip), vehicle: other 104 % of control | endpoint: mean survival time, dose: 100.0 mg/kg/injection, schedule: Q01DX001 (ip), vehicle: Klucel (hydroxypropylcellulose) (HPC) 94 % of control

O=C1/C(=N/O)Cc2ccccc21
inactive: [7] 97 % of control

O=C1CCCC2C3CC(CN12)C1CCCCN1C3 (configuration not stated)
inactive: [8] 103 % of control | [9] 101 % of control | [4] 100 % of control | [1] 97 % of control

C1CC[N-]CC1.C1CC[N-]CC1.C1CC[N-]CC1.[Cl][Rh]([Cl])[Cl]
inactive: [7] 99 % of control | [8] 99 % of control

CCCCC(=O)O.[Pb]
inactive: endpoint: mean survival time, dose: 75.0 mg/kg/injection, schedule: Q01DX001 (ip), vehicle: steriod suspending solution 100 % of control | endpoint: mean survival time, dose: 150.0 mg/kg/injection, schedule: Q01DX001 (ip), vehicle: steriod suspending solution 104 % of control | endpoint: mean survival time, dose: 300.0 mg/kg/injection, schedule: Q01DX001 (ip), vehicle: steriod suspending solution 97 % of control

CCOC(=O)CC1c2nc3ccccc3cc2CN1C(=O)CCOC(C)=O (configuration not stated)
inactive: [4] 95 % of control | [1] 104 % of control | [5] 92 % of control | [2] 100 % of control | [6] 97 % of control | [10] 97 % of control

CCCCCCCCCCCc1nc(N)n[nH]1
inactive: [1] 98 % of control | [2] 102 % of control | [10] 102 % of control

Cc1ccc(C(=O)NCCCOc2ccc(N3C(N)=NC(N)=NC3(C)C)cc2Cl)cc1S(=O)(=O)F
inactive: [7] 106 % of control | [8] 103 % of control | [9] 103 % of control | [4] 106 % of control

C[C@]12CC[C@H](O)CC1=CC[C@@H]1[C@@H]2CC[C@]2(C)C(=O)CC[C@@H]12
inactive: endpoint: mean survival time, dose: 50.0 mg/kg/injection, schedule: Q01DX009 (ip), vehicle: Klucel (hydroxypropylcellulose) (HPC) 98 % of control | endpoint: mean survival time, dose: 100.0 mg/kg/injection, schedule: Q01DX009 (ip), vehicle: Klucel (hydroxypropylcellulose) (HPC) 102 % of control | endpoint: mean survival time, dose: 200.0 mg/kg/injection, schedule: Q01DX009 (ip), vehicle: Klucel (hydroxypropylcellulose) (HPC) 94 % of control | endpoint: median survival time, dose: 25.0 mg/kg/injection, schedule: Q01DX009 (ip), vehicle: saline with Tween-80 101 % of control | endpoint: median survival time, dose: 50.0 mg/kg/injection, schedule: Q01DX009 (ip), vehicle: saline with Tween-80 101 % of control | endpoint: median survival time, dose: 100.0 mg/kg/injection, schedule: Q01DX009 (ip), vehicle: saline with Tween-80 92 % of control | endpoint: median survival time, dose: 200.0 mg/kg/injection, schedule: Q01DX009 (ip), vehicle: saline with Tween-80 92 % of control | endpoint: median survival time, dose: 400.0 mg/kg/injection, schedule: Q01DX009 (ip), vehicle: saline with Tween-80 91 % of control

Cc1cccnc1-n1c(N)cc(=O)[nH]c1=S
inactive: [1] 97 % of control | [2] 101 % of control | [10] 100 % of control

[NH-]S(=O)(=O)O.[NH-]S(=O)(=O)O.[NH2-].[NH2-].[Pt+4]
inactive: endpoint: mean survival time, dose: 10.0 mg/kg/injection, schedule: Q04DX003 (ip), vehicle: saline with Tween-80 95 % of control | endpoint: mean survival time, dose: 20.0 mg/kg/injection, schedule: Q04DX003 (ip), vehicle: saline with Tween-80 97 % of control | endpoint: mean survival time, dose: 40.0 mg/kg/injection, schedule: Q04DX003 (ip), vehicle: saline with Tween-80 97 % of control

O=[N+]([O-])c1ccc(N/N=C2/CCSc3ccccc32)cc1
inactive: endpoint: mean survival time, dose: 100.0 mg/kg/injection, schedule: Q01DX009 (ip), vehicle: saline 102 % of control | endpoint: mean survival time, dose: 200.0 mg/kg/injection, schedule: Q01DX009 (ip), vehicle: saline 101 % of control | endpoint: mean survival time, dose: 400.0 mg/kg/injection, schedule: Q01DX009 (ip), vehicle: saline 95 % of control

— PubChem BioAssay AID256 (DTP/NCI, 2004)
